{"source": "ChEMBL document CHEMBL2331252", "about": "“Facile one-pot synthesis of novel dispirooxindole-pyrrolidine derivatives and their antimicrobial and anticancer activity against A549 human lung adenocarcinoma cancer cell line” (Bioorg Med Chem Lett, 2013)", "key": {"Micrococcus luteus [1]": {"tested_on": "Micrococcus luteus", "test": "Antibacterial activity against Micrococcus luteus MTCC 106 after 24 hrs", "assay_type": "functional"}, "Candida albicans [2]": {"tested_on": "Candida albicans", "test": "Antifungal activity against Candida albicans MTCC 227 at 1 mg/disc after 48 hrs by disc diffusion method", "assay_type": "functional"}, "Candida albicans [3]": {"tested_on": "Candida albicans", "test": "Antifungal activity against Candida albicans MTCC 227 after 48 to 72 hrs", "assay_type": "functional"}, "Staphylococcus aureus [4]": {"tested_on": "Staphylococcus aureus", "test": "Antibacterial activity against methicillin-resistant Staphylococcus aureus after 24 hrs", "assay_type": "functional"}, "Salmonella typhimurium [5]": {"tested_on": "Salmonella typhimurium", "test": "Antibacterial activity against Salmonella typhimurium MTCC 1251 at 1 mg/disc after 24 hrs by disc diffusion method", "assay_type": "functional, Salmonella enterica subsp. enterica serovar Typhimurium"}, "A549 [6]": {"tested_on": "A549", "test": "Cytotoxicity against human A549 cells assessed as cell death at 50 ug/ml by MTT assay", "assay_type": "functional"}, "Micrococcus luteus [7]": {"tested_on": "Micrococcus luteus", "test": "Antibacterial activity against Micrococcus luteus MTCC 106 at 1 mg/disc after 24 hrs by disc diffusion method", "assay_type": "functional"}, "Proteus vulgaris [8]": {"tested_on": "Proteus vulgaris", "test": "Antibacterial activity against Proteus vulgaris MTCC 1771 after 24 hrs", "assay_type": "functional", "conditions": "MTCC 1771, 24 h"}, "Shigella flexneri [9]": {"tested_on": "Shigella flexneri", "test": "Antibacterial activity against Shigella flexneri MTCC 1457 at 1 mg/disc after 24 hrs by disc diffusion method", "assay_type": "functional"}, "A549 [10]": {"tested_on": "A549", "test": "Cytotoxicity against human A549 cells assessed as cell death at 100 ug/ml by MTT assay", "assay_type": "functional"}, "Klebsiella pneumoniae [11]": {"tested_on": "Klebsiella pneumoniae", "test": "Antibacterial activity against Klebsiella pneumoniae MTCC 109 after 24 hrs", "assay_type": "functional", "conditions": "MTCC 109, 24 h"}, "[12]": {"test": "Antifungal activity against Malassezia pachydermatis at 1 mg/disc after 48 hrs by disc diffusion method", "assay_type": "functional"}, "Klebsiella aerogenes [13]": {"tested_on": "Klebsiella aerogenes", "test": "Antibacterial activity against Enterobacter aerogenes MTCC 111 after 24 hrs", "assay_type": "functional"}, "Staphylococcus aureus [14]": {"tested_on": "Staphylococcus aureus", "test": "Antibacterial activity against methicillin-resistant Staphylococcus aureus at 1 mg/disc after 24 hrs by disc diffusion method", "assay_type": "functional"}, "Klebsiella pneumoniae [15]": {"tested_on": "Klebsiella pneumoniae", "test": "Antibacterial activity against Klebsiella pneumoniae MTCC 109 at 1 mg/disc after 24 hrs by disc diffusion method", "assay_type": "functional"}, "Salmonella typhimurium [16]": {"tested_on": "Salmonella typhimurium", "test": "Antibacterial activity against Salmonella typhimurium MTCC 1251 after 24 hrs", "assay_type": "functional, Salmonella enterica subsp. enterica serovar Typhimurium", "conditions": "Salmonella enterica, MTCC 1251, 24 h"}, "Shigella flexneri [17]": {"tested_on": "Shigella flexneri", "test": "Antibacterial activity against Shigella flexneri MTCC 1457 after 24 hrs", "assay_type": "functional", "conditions": "MTCC 1457, 24 h"}, "A549 [18]": {"tested_on": "A549", "test": "Cytotoxicity against human A549 cells assessed as cell death at 200 ug/ml by MTT assay", "assay_type": "functional"}, "Staphylococcus aureus [19]": {"tested_on": "Staphylococcus aureus", "test": "Antibacterial activity against Staphylococcus aureus MTCC 96 after 24 hrs", "assay_type": "functional", "conditions": "MTCC 96, 24 h"}, "Staphylococcus aureus [20]": {"tested_on": "Staphylococcus aureus", "test": "Antibacterial activity against Staphylococcus aureus MTCC 96 at 1 mg/disc after 24 hrs by disc diffusion method", "assay_type": "functional"}, "Proteus vulgaris [21]": {"tested_on": "Proteus vulgaris", "test": "Antibacterial activity against Proteus vulgaris MTCC 1771 at 1 mg/disc after 24 hrs by disc diffusion method", "assay_type": "functional"}, "A549 [22]": {"tested_on": "A549", "test": "Cytotoxicity against human A549 cells assessed as cell death by MTT assay", "assay_type": "functional, cell-based"}, "Klebsiella aerogenes [23]": {"tested_on": "Klebsiella aerogenes", "test": "Antibacterial activity against Enterobacter aerogenes MTCC 111 at 1 mg/disc after 24 hrs by disc diffusion method", "assay_type": "functional"}}, "note": "The source made the active and inactive calls. No cut-off for these calls is given here.", "data": [{"smiles": "C#CCN1C(=O)[C@@]2(c3ccccc31)N(C)C[C@](C#N)(C(=O)c1c[nH]c3ccccc13)[C@]21C(=O)Nc2ccccc21", "values": [{"measurement": "MIC", "setting": "Micrococcus luteus [1]", "value": "inactive"}, {"measurement": "inhibition", "setting": "Candida albicans [2]", "value": "inactive"}, {"measurement": "MIC", "setting": "Candida albicans [3]", "value": "inactive"}, {"measurement": "MIC", "setting": "Staphylococcus aureus [4]", "value": 500, "unit": "µg/mL"}, {"measurement": "inhibition zone (IZ)", "setting": "Salmonella typhimurium [5]", "value": 9, "unit": "mm"}, {"measurement": "Activity", "setting": "A549 [6]", "value": 55.22, "unit": "%"}, {"measurement": "inhibition", "setting": "Micrococcus luteus [7]", "value": "inactive"}, {"measurement": "MIC", "setting": "Proteus vulgaris [8]", "value": 500, "unit": "µg/mL"}, {"measurement": "inhibition zone (IZ)", "setting": "Shigella flexneri [9]", "value": 8, "unit": "mm"}, {"measurement": "Activity", "setting": "A549 [10]", "value": 59.31, "unit": "%"}, {"measurement": "MIC", "setting": "Klebsiella pneumoniae [11]", "value": 62.5, "unit": "µg/mL"}, {"measurement": "inhibition", "setting": "[12]", "value": "inactive"}, {"measurement": "MIC", "setting": "Klebsiella aerogenes [13]", "value": "inactive"}, {"measurement": "inhibition zone (IZ)", "setting": "Staphylococcus aureus [14]", "value": 8, "unit": "mm"}, {"measurement": "inhibition zone (IZ)", "setting": "Klebsiella pneumoniae [15]", "value": 14, "unit": "mm"}, {"measurement": "MIC", "setting": "Salmonella typhimurium [16]", "value": 500, "unit": "µg/mL"}, {"measurement": "MIC", "setting": "Shigella flexneri [17]", "value": 500, "unit": "µg/mL"}, {"measurement": "Activity", "setting": "A549 [18]", "value": 67.67, "unit": "%"}, {"measurement": "MIC", "setting": "Staphylococcus aureus [19]", "value": 125, "unit": "µg/mL"}, {"measurement": "inhibition zone (IZ)", "setting": "Staphylococcus aureus [20]", "value": 12, "unit": "mm"}, {"measurement": "inhibition zone (IZ)", "setting": "Proteus vulgaris [21]", "value": 10, "unit": "mm"}, {"measurement": "IC50", "setting": "A549 [22]", "value": 50, "unit": "µg/mL"}, {"measurement": "inhibition", "setting": "Klebsiella aerogenes [23]", "value": "inactive"}]}]}
